Measured values: article PMC8173106, “Modulating Enzyme Function via Dynamic Allostery within Biliverdin Reductase B” (Frontiers in Molecular Biosciences, 2021)

Molecular target: T1, human BLVRB (biliverdin reductase B) (Homo sapiens, UniProt P30043)
T1 construct: full length, 206 residues; codon-optimised, pET21b (T164S in pJ401k); N-terminal 6xHis tag removed with thrombin
T1 sequence (P30043 1-206): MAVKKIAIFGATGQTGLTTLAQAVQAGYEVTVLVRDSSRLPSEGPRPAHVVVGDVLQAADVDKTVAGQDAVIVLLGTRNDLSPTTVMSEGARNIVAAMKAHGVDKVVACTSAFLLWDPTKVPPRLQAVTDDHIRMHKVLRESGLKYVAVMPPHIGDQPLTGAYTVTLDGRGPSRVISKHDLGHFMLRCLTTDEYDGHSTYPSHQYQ
Assay: isothermal titration calorimetry
Type: binding
Conditions: 50 mM bis-tris, pH 6.5, 50 mM NaCl, 20 C; apo enzyme

SMILES: NC(=O)c1ccc[n+]([C@@H]2O[C@H](COP(=O)(O)OP(=O)(O)OC[C@H]3O[C@@H](n4cnc5c(N)ncnc54)[C@H](OP(=O)(O)O)[C@@H]3O)[C@@H](O)[C@H]2O)c1 [NADP^+]
- KD: screened for their dissociation constants (KD) to NADP^+ using ITC
